Source: patent publication US9018374B2, “Crystal of amide compound” (Takeda Pharmaceutical Company Limited, priority 2010, dated 2015)
“Also recorded” adds a separate entry of the source.

What was measured:
[1] = Moisture adsorption analysis; assay type: physicochemical; details: 25° C., hydrochloride
Experimental: Moisture adsorption of type A crystal and type B crystal was automatically analyzed by VTI Symmetrical Gravimetric Analyzer in step-isothermal mode (SGA-100 for type A crystal, SGA-CX for type B crystal). Samples were exposed various relative humidities (RH) at 25° C. The weight of the samples at each relative humidity was recorded after equilibrium (weight change of less than 0.02% within 10 min).

Slurry interconversion = assay type: physicochemical; details: for crystal form 1 day later: 20 mg in 0.2 mL isopropyl alcohol, slurry at ambient temperature, powder X-ray diffraction, hydrochloride
Experimental: Type A crystal, type B crystal, and a mixture (1:1) of type A crystal and type B crystal (each 20 mg) were measured in vials, and isopropyl alcohol (0.2 mL) was added to give suspension containing excess solids remaining therein. The vial was sealed, and shaken on a slurry wheel at ambient temperature for 1 day at steady rotation. Thereafter, the solids were collected by filtration.

Dissolution test = details: room temperature (25° C.)
Experimental: To type A crystal and type B crystal (each 50 mg) were added 2-butanone, ethyl acetate, toluene, n-heptane and tert-butylmethylether (each 5 mL), and the dissolution property was measured using a powder suspension (25° C., 2 hr). The suspension was centrifuged, the supernatant was filtered with a filter (pore size 0.22 μm), and the solvent was evaporated from the filtrate under a nitrogen atmosphere. The residue obtained by evaporation was dissolved in a mixed solution of 50 mM aqueous ammonium acetate solution/acetonitrile (1:1), and measured by HPLC.

level (%) of weight change ([1]; relative humidity 30% RH) [%] | level (%) of weight change ([1]; relative humidity 50% RH) [%] | level (%) of weight change ([1]; relative humidity 70% RH) [%] | crystal form 1 day later (Slurry interconversion) | thermodynamic stability as compared to type A crystal (from dissolution test) (Dissolution test) | thermodynamic stability as compared to type A crystal (from slurry experiment) (Slurry interconversion; ambient temperature) | SMILES
−0.1 | 0.0 | 7.6 | convert to type B crystal | – | – | COCCCCn1c(C(=O)N(CC(C)C)[C@@H]2CNC[C@H](C(=O)N3CCOCC3)C2)nc2ccccc21.Cl [type A crystal, 1-(4-methoxybutyl)-N-(2-methylpropyl)-N-[(3S,5R)-5-(morpholin-4-ylcarbonyl)piperidin-3-yl]-1H-benzimidazole-2-carboxamide hydrochloride, reference compound]
0.0 | 0.5 | 0.9 | no change; also recorded: type B | thermodynamically stable | thermodynamically stable | COCCCCn1c(C(=O)N(CC(C)C)[C@@H]2CNC[C@H](C(=O)N3CCOCC3)C2)nc2ccccc21.Cl [type B crystal, 1-(4-methoxybutyl)-N-(2-methylpropyl)-N-[(3S,5R)-5-(morpholin-4-ylcarbonyl)piperidin-3-yl]-1H-benzimidazole-2-carboxamide hydrochloride]
